Among the data in patent publication US20150119251A1, “AGRICULTURAL PLANT-PROTECTING AGENTS CONTAINING DIPEPTIDE DERIVATIVE AS ACTIVE INGREDIENT” (REPUBLIC OF KOREA (RURAL DEVELOPMENT ADMINISTRATION), priority 2012, published 2015) are Lesion outbreak rate values, retold here.

Square brackets hold non-standard residues; d marks the D form. Peptide text beside a SMILES is read from it. * marks the point of attachment. ξ: configuration not given here. Ile(3ξ) = CCC(C)[C@H](N)C(=O)O; Boc = CC(C)(C)OC(=O)*; OBn = c1ccc(CO*)cc1; OtBu = CC(C)(C)O*

For test [1], the system named is pepper phytophthora blight (Phytopthora capsici). Nature of the test: Suppression of pepper phytophthora blight on leaves. The class given is in vivo. The note with it: pepper leaves. Here is the method:
The peppers were raised in the same method as Example 3, and then, the test compounds were dissolved in 20% methanol to make a stock solution, and a stock was diluted to the concentrations of 0.1, 1.0, and 10.0 ppm. The test solutions were sprayed on the leaves or drench-treated on the leaves. After 7 days, the pathogen of plant bacterial rot (Pectobacterium carotovorum SCC1) was cultured in a TSA medium for 27 hours, and then, wetted on an 8 mm diameter paper disc in the concentration of 10^8 cfu/mL. The paper disc was located in the center of the leaves that were cut roundly, and then, after about 7 days, the lesion area was measured. In the case of phytophthora, the potato agar medium cultured with the phytophthora (Phytophthora capsici) was cut in the internal diameter size of 5 mm with a cork borer, and then inoculated to the leaves. After 7 days, the lesion area was observed. In the case of a bacterial rot, when Compounds 6, 89, 93, and 95 were sprayed on the pepper leaves, the bacterial rot was not found in the concentration of 1 or 10 ppm as compared with the non-treated group. […] The Suppression of lesion formation on the leaves when these compounds were drench-treated to the roots can be explained as it was resulted from that systemic disease resistance was induced in the whole plant. These test results are illustrated in the photographs of FIGS. 5 to 9.

Test [2] deals with tobacco bacterial rot (Pectobacterium carotovorum). The test is described as follows: Suppression of tobacco bacterial rot. The test is classed as in vivo, Pectobacterium carotovorum SCC1. How it is done:
A tobacco or cucumber was sown in a plastic pot with a diameter of 10 cm×13 cm, and then, 12 pots were added in a yellow box. After seeding, 100 μL was inoculated to the cotyledons of cucumber or tobacco, in which first leaf was started to come out. The test compounds were dissolved in 20% methanol to make a stock solution, and then, the stock solution was diluted to the concentrations of 1, 10, and 100 ppm.
After 7 days, the pathogen of a plant bacterial rot (Pectobacterium carotovorum SCC1) was cultured in a TSA medium for 27 hours; and then, the cultured pathogen was sprayed in a concentration of 10^8 cfu/mL to the plant leaves, and cultured at 30° C. for 3 days. The plant anthracnose germ (Colletotrichum orbiculare) was cultured in a GBA (Green bean agar) medium to induce spores for about 2 to 3 weeks. The germ was sprayed in a concentration of 10^5 cell/mL and then cultured at 26° C. for 1 day. When fourth or fifth leaf came out, 200 μL of each of the test compounds was inoculated to third leaf. After 7 days, the pathogen of the plant bacterial rot was sprayed to the plant leaves in the concentration of 10^8 cfu/mL, and then cultured at 30° C. for 3 days.
The investigation was performed with naked eyes, and the lesion relative areas were investigated until 0 to 100% according to the shortness degrees of the bacterial rot. The anthracnose was investigated by counting the number of lesions occurred on the leaves.

As to `COC(=O)[C@@H](NC(=O)CN)C(C)C` [Compound 88] (H-Gly-Val-OMe), the Lesion outbreak rate in test [1] (0.1 ppm) is 35 area %; in test [1] (1.0 ppm), 33 area %.

As to `COC(=O)[C@@H](NC(=O)CNC(=O)OC(C)(C)C)C(C)C` [Compound 87] (Boc-Gly-Val-OMe), the Lesion outbreak rate in test [1] (0.1 ppm) was found to be 62 area %; in test [1] (1.0 ppm), 36 area %.

`COC(=O)C[C@H](NC(C)=O)C(=O)N[C@@H](Cc1ccccc1)C(=O)OC` [Compound 96] (Ac-Asp(OMe)-Phe-OMe): the Lesion outbreak rate in test [1] (0.1 ppm) is 32 area %; in test [1] (1.0 ppm) it was 23 area %.

For `COC(=O)[C@H](Cc1ccccc1)NC(=O)[C@H](CC(=O)OCc1ccccc1)NC(C)=O` [Compound 100] (Ac-Asp(OBn)-Phe-OMe), the Lesion outbreak rate is given as 19 area % in test [1] (0.1 ppm) and 21 area % in test [1] (1.0 ppm).

As to `CCOC(=O)[C@H](C)NC(=O)[C@H](CC(C)C)NC(=O)OC(C)(C)C` [Compound 9] (Boc-Leu-Ala-OEt), the Lesion outbreak rate in test [2] (Table 3, tobacco, 1 ppm) amounted to 90%; in test [2] (Table 3, tobacco, 10 ppm), 53%; in test [2] (Table 3, tobacco, 100 ppm), 82%.

Turning to `COC(=O)[C@@H]1CCCN1C(=O)[C@@H](CC(C)C)NC(=O)OC(C)(C)C` [Compound 57] (Boc-[dL]-Pro-OMe), the Lesion outbreak rate was found to be 25% in test [2] (Table 5, tobacco, 10 ppm) and 25% in test [2] (Table 5, tobacco, 100 ppm).

`COC(=O)[C@@H]1CCCN1C(=O)[C@@H](CCC(N)=O)NC(=O)OC(C)(C)C` [Compound 54] (Boc-[dQ]-Pro-OMe): the Lesion outbreak rate in test [2] (Table 5, tobacco, 10 ppm) is given as 36%; in test [2] (Table 5, tobacco, 100 ppm) it was 60%.

In the case of `COC(=O)[C@H]1CCCN1C(=O)[C@H](C)NC(=O)OC(C)(C)C` [Compound 44] (Boc-Ala-[dP]-OMe), the Lesion outbreak rate is 46% in test [2] (Table 4, tobacco, 1 ppm); 37% in test [2] (Table 4, tobacco, 10 ppm); 33% in test [2] (Table 4, tobacco, 100 ppm).

With `CCOC(=O)[C@H](C)NC(=O)[C@@H](N)CC(C)C` [Compound 10] (H-Leu-Ala-OEt), the Lesion outbreak rate in test [2] (Table 3, tobacco, 1 ppm) amounted to 80%; in test [2] (Table 3, tobacco, 10 ppm), 73%; in test [2] (Table 3, tobacco, 100 ppm), 87%.

Take `COC(=O)[C@H]1CCCN1C(=O)[C@@H](Cc1ccccc1)NC(=O)OC(C)(C)C` [Compound 65] (Boc-[dF]-[dP]-OMe): the Lesion outbreak rate was 80% in test [2] (Table 6, tobacco, 1 ppm); 57% in test [2] (Table 6, tobacco, 10 ppm); 55% in test [2] (Table 6, tobacco, 100 ppm).

For `COC(=O)[C@@H]1CCCN1C(=O)[C@H](C)NC(=O)OC(C)(C)C` [Compound 20] (Boc-Ala-Pro-OMe), the Lesion outbreak rate in test [2] (Table 6, tobacco, 1 ppm) amounted to 56%; in test [2] (Table 6, tobacco, 10 ppm), 63%; in test [2] (Table 6, tobacco, 100 ppm) it was 51%.

Turning to `COC(=O)C1CCCN1C(=O)C(NC(=O)OC(C)(C)C)C(C)O` (stereo not drawn) [Compound 24] (Boc-Thr-Pro-OMe; configuration not given here), the Lesion outbreak rate in test [2] (Table 4, tobacco, 1 ppm) was 13%; in test [2] (Table 4, tobacco, 10 ppm), 65%; in test [2] (Table 4, tobacco, 100 ppm) it was 33%.

Take `COC(=O)[C@@H]1CCCN1C(=O)[C@H](Cc1ccc(O)cc1)NC(=O)OC(C)(C)C` [Compound 32] (Boc-Tyr-Pro-OMe): the Lesion outbreak rate in test [2] (Table 4, tobacco, 1 ppm) was determined as 78%; in test [2] (Table 4, tobacco, 10 ppm) it was 30%; in test [2] (Table 4, tobacco, 100 ppm), 60%.

For `COC(=O)[C@H]1CCCN1C(=O)[C@H](CC(C)C)NC(=O)OC(C)(C)C` [Compound 36] (Boc-Leu-[dP]-OMe), the Lesion outbreak rate in test [2] (Table 4, tobacco, 1 ppm) stood at 45%; in test [2] (Table 4, tobacco, 10 ppm) it was 41%; in test [2] (Table 4, tobacco, 100 ppm), 38%.

`COC(=O)[C@@H]1CCCN1C(=O)[C@@H](Cc1ccccc1)NC(=O)OC(C)(C)C` [Compound 59] (Boc-[dF]-Pro-OMe): the Lesion outbreak rate worked out at 38% in test [2] (Table 5, tobacco, 10 ppm) and 25% in test [2] (Table 5, tobacco, 100 ppm).

In the case of `COC(=O)[C@H]1CCCN1C(=O)[C@@H](CC(C)C)NC(=O)OC(C)(C)C` [Compound 75] (Boc-[dL]-[dP]-OMe), the Lesion outbreak rate in test [2] (Table 6, tobacco, 1 ppm) came to 25%; in test [2] (Table 6, tobacco, 10 ppm), 80%; in test [2] (Table 6, tobacco, 100 ppm), 100%.

In the case of `COC(=O)[C@H]1CCCN1C(=O)[C@@H](NC(=O)OC(C)(C)C)C(C)C` [Compound 49] (Boc-Val-[dP]-OMe), the Lesion outbreak rate in test [2] (Table 5, tobacco, 10 ppm) was determined as 23%; in test [2] (Table 5, tobacco, 100 ppm), 0%.

On to `COC(=O)[C@H]1CCCN1C(=O)[C@H](Cc1c[nH]cn1)NC(=O)OC(C)(C)C` [Compound 46], for which the Lesion outbreak rate in test [2] (Table 4, tobacco, 1 ppm) was 56%; in test [2] (Table 4, tobacco, 10 ppm) it was 70%; in test [2] (Table 4, tobacco, 100 ppm), 48%.

Regarding `COC(=O)[C@H]1CCCN1C(=O)[C@H](Cc1ccccc1)NC(=O)OC(C)(C)C` [Compound 42] (Boc-Phe-[dP]-OMe), the Lesion outbreak rate turned out to be 43% in test [2] (Table 4, tobacco, 1 ppm); 60% in test [2] (Table 4, tobacco, 10 ppm); 45% in test [2] (Table 4, tobacco, 100 ppm).

For `COC(=O)[C@@H]1CCCN1C(=O)[C@H](CC(=O)OC(C)(C)C)NC(=O)OC(C)(C)C` [Compound 25] (Boc-Asp(OtBu)-Pro-OMe), the Lesion outbreak rate in test [2] (Table 4, tobacco, 1 ppm) is 50%; in test [2] (Table 4, tobacco, 10 ppm), 70%; in test [2] (Table 4, tobacco, 100 ppm), 50%.

For `COC(=O)[C@@H]1CCCN1C(=O)[C@@H](CCSC)NC(=O)OC(C)(C)C` [Compound 63] (Boc-[dM]-Pro-OMe), the Lesion outbreak rate in test [2] (Table 5, tobacco, 10 ppm) amounted to 56%; in test [2] (Table 5, tobacco, 100 ppm), 52%.

With `COC(=O)[C@@H]1CCCN1C(=O)[C@H](CCCNC(=NC(=O)OCc1ccccc1)NC(=O)OCc1ccccc1)NC(=O)OC(C)(C)C` [Compound 31], the Lesion outbreak rate amounted to 63% in test [2] (Table 4, tobacco, 1 ppm); 56% in test [2] (Table 4, tobacco, 10 ppm); 73% in test [2] (Table 4, tobacco, 100 ppm).

Turning to `COC(=O)[C@@H]1CCCN1C(=O)[C@@H](CO)NC(=O)OC(C)(C)C` [Compound 60] (Boc-[dS]-Pro-OMe), the Lesion outbreak rate is recorded as 18% in test [2] (Table 5, tobacco, 10 ppm) and 56% in test [2] (Table 5, tobacco, 100 ppm).

Regarding `COC(=O)[C@@H]1CCCN1C(=O)[C@@H](Cc1ccc(O)cc1)NC(=O)OC(C)(C)C` [Compound 53] (Boc-[dY]-Pro-OMe), the Lesion outbreak rate is listed as 45% in test [2] (Table 5, tobacco, 10 ppm) and 50% in test [2] (Table 5, tobacco, 100 ppm).

For the compound `COC(=O)[C@H]1CCCN1C(=O)[C@H](CC(=O)OC(C)(C)C)NC(=O)OC(C)(C)C` [Compound 37] (Boc-Asp(OtBu)-[dP]-OMe), the Lesion outbreak rate came out at 5% in test [2] (Table 4, tobacco, 1 ppm); 5% in test [2] (Table 4, tobacco, 10 ppm); 43% in test [2] (Table 4, tobacco, 100 ppm).

Regarding `COC(=O)[C@@H]1CCCN1C(=O)[C@H](Cc1ccccc1)NC(=O)OC(C)(C)C` [Compound 19] (Boc-Phe-Pro-OMe), the Lesion outbreak rate in test [2] (Table 6, tobacco, 1 ppm) was determined as 49%; in test [2] (Table 6, tobacco, 10 ppm), 42%; in test [2] (Table 6, tobacco, 100 ppm) it was 50%.

For `COC(=O)[C@@H]1CCCN1C(=O)[C@@H]1CCCN1C(=O)OC(C)(C)C` [Compound 27] (Boc-Pro-Pro-OMe), the Lesion outbreak rate came out at 33% in test [2] (Table 4, tobacco, 1 ppm); 30% in test [2] (Table 4, tobacco, 10 ppm); 20% in test [2] (Table 4, tobacco, 100 ppm).

Take `CCC(C)[C@H](NC(=O)OC(C)(C)C)C(=O)N1CCC[C@@H]1C(=O)OC` (stereo partly shown) [Compound 34] (Boc-[Ile(3ξ)]-[dP]-OMe): the Lesion outbreak rate in test [2] (Table 4, tobacco, 1 ppm) is recorded as 35%; in test [2] (Table 4, tobacco, 10 ppm), 41%; in test [2] (Table 4, tobacco, 100 ppm), 24%.

With `COC(=O)CNC(=O)[C@H](CC(C)C)NC(=O)OC(C)(C)C` [Compound 3] (Boc-Leu-Gly-OMe), the Lesion outbreak rate in test [2] (Table 3, tobacco, 1 ppm) was 13%; in test [2] (Table 3, tobacco, 10 ppm) it was 68%; in test [2] (Table 3, tobacco, 100 ppm), 80%.

For the compound `COC(=O)[C@H](Cc1c[nH]c2ccccc12)NC(=O)[C@@H](NC(=O)OC(C)(C)C)C(C)C` [Compound 17] (Boc-Val-Trp-OMe), the Lesion outbreak rate in test [2] (Table 6, tobacco, 1 ppm) is listed as 100%; in test [2] (Table 6, tobacco, 10 ppm), 25%; in test [2] (Table 6, tobacco, 100 ppm), 100%.

Take `COC(=O)[C@H](Cc1c[nH]c2ccccc12)NC(=O)CNC(=O)OC(C)(C)C` [Compound 16] (Boc-Gly-Trp-OMe): the Lesion outbreak rate worked out at 25% in test [2] (Table 6, tobacco, 1 ppm); 25% in test [2] (Table 6, tobacco, 10 ppm); 53% in test [2] (Table 6, tobacco, 100 ppm).

For `COC(=O)[C@H]1CCCN1C(=O)[C@@H](C)NC(=O)OC(C)(C)C` [Compound 70] (Boc-[dA]-[dP]-OMe), the Lesion outbreak rate in test [2] (Table 6, tobacco, 1 ppm) stood at 80%; in test [2] (Table 6, tobacco, 10 ppm), 72%; in test [2] (Table 6, tobacco, 100 ppm), 77%.
